Patent publication US20230135152A1 (ACURASTEM INCORPORATED, priority 2020, published 2023)
Structures can show the parent of a compound that is named as a salt.

These molecules were tested against PIKFYVE (Homo sapiens, UniProt Q9Y2I7) (assay: PIKFYVE assay (luciferase ADP-Glo kinase assay, Promega)). Conditions: Table 1.
Type: biochemical
Protocol: The activity of Compounds 1-20 was measured using a PIKFYVE assay (luciferase ADP-Glo kinase assay available from Promega Corp. of Madison, Wis.).
The activity of Compounds 39-90 was also measured using a PIKFYVE assay (luciferase ADP-Glo kinase assay available from Promega Corp. of Madison, Wis.).
The activity of Compounds 93-347 was also measured using a PIKFYVE assay (luciferase ADP-Glo kinase assay available from Promega Corp. of Madison, Wis.).

Chain of PIKFYVE (Q9Y2I7 whole entry): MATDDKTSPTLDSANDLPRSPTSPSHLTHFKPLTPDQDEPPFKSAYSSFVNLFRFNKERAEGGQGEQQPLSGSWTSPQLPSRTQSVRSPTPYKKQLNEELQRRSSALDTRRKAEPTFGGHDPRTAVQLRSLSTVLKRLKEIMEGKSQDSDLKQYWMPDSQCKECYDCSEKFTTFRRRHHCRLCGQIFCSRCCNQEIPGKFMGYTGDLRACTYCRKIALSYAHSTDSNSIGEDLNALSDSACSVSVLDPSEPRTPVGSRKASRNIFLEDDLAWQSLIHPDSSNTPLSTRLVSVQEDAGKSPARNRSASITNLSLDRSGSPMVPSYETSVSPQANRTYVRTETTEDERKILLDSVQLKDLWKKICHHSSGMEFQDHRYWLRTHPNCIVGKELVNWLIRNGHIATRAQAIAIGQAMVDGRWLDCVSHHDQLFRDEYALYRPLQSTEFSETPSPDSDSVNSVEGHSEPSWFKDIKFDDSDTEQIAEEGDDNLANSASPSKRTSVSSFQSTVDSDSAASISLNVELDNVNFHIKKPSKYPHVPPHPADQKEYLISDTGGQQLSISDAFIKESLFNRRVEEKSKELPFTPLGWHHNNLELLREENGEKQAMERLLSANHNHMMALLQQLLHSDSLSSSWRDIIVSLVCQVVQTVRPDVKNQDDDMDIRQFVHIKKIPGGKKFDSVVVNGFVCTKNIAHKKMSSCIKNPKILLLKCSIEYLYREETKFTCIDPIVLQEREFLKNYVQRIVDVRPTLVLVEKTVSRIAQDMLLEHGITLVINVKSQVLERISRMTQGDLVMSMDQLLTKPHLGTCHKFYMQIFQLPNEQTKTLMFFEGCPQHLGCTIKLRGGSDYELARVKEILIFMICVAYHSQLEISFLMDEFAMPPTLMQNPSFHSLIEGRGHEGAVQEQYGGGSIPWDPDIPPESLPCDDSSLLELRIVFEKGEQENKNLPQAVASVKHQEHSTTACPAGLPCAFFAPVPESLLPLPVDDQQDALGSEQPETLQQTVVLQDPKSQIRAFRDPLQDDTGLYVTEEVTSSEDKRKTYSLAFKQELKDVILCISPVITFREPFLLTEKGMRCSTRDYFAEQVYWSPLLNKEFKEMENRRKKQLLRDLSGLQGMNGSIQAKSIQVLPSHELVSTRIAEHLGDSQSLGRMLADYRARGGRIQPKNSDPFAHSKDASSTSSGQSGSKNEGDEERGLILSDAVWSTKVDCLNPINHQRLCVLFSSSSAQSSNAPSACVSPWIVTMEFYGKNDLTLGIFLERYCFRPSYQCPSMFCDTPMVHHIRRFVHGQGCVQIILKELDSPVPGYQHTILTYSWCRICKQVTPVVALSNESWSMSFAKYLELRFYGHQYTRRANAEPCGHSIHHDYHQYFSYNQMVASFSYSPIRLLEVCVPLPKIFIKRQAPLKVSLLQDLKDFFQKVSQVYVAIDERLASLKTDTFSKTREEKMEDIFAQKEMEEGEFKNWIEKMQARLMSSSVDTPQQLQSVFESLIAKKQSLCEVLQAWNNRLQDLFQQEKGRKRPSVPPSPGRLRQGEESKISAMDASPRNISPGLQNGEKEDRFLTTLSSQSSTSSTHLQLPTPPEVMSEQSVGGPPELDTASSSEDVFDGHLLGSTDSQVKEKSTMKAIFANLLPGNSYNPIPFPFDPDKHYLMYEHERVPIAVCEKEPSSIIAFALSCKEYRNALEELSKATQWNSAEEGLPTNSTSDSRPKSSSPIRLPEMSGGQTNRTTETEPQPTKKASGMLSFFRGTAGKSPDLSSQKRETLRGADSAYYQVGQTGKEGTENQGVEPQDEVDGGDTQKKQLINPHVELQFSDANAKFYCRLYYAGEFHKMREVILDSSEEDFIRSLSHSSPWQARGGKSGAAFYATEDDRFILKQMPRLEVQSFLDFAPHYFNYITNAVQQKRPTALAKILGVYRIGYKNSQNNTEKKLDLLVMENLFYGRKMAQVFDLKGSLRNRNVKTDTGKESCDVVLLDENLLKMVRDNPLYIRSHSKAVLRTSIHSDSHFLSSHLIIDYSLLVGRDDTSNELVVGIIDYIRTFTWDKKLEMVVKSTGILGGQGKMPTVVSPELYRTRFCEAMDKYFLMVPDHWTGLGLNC

IC50	SMILES
1000 to 10000 nM	COCCSc1cc(-n2ccc(-c3cccc(C)c3)n2)nc(OCC2CCCO2)n1 (stereo not shown) [Compound 18, 4-((2-methoxyethyl)thio)-2-((tetrahydrofuran-2-yl)methoxy)-6-(3-(m-tolyl)-1H-pyrazol-1-yl)pyrimidine]

Same assay, conditions: Table 2

SMILES	IC50
Cc1cn(-c2cc(N3CCOCC3)nc(OCCc3cnn(C)c3)n2)nc1-c1ccccc1 [Compound 63, 4-(2-(2-(1-methyl-1H-pyrazol-4-yl)ethoxy)-6-(4-methyl-3-phenyl-1H-pyrazol-1-yl)pyrimidin-4-yl)morpholine]	101 to 1000 nM
Clc1ccc(-c2ccn(-c3cc(N4CCOCC4)nc(OCCc4ccccn4)n3)n2)cc1 [Compound 40]	101 to 1000 nM
Cc1cccc(-c2ccn(-c3nc(NCCc4cnccn4)cc(N4CCOCC4)n3)n2)c1 [Compound 47]	5 to 100 nM
Cc1cccc(-c2ccn(-c3cc(N4CCOCC4)nc(NCCc4ccccn4)n3)n2)c1 [Compound 46, 4-morpholino-N-(2-(pyridin-2-yl)ethyl)-6-(3-(m-tolyl)-1H-pyrazol-1-yl)pyrimidin-2-amine]	5 to 100 nM

The next lines start with the values.

IC50	SMILES
101 to 1000 nM	Cc1cccc(-c2ccn(-c3cc(N4CC[C@H]5OCC[C@H]54)nc(C(O)CO)n3)n2)c1 (stereo partly shown) [Compound 48]
5 to 100 nM	OCc1nc(N2CCOCC2)cc(-n2ccc(-c3ccccc3)n2)n1 [Compound 84]
1000 to 10000 nM	CC(C)(C)c1ccn(-c2cc(N3CCOCC3)nc(OCC(O)CO)n2)n1 (stereo not shown) [Compound 51]

Same assay, conditions: Table 3

SMILES	IC50
CO[C@@H](CO)c1nc(N2CCOCC2)cc(-n2nc(-c3c[nH]c4ccncc34)cc2C)n1 [Compound 289, (R)-2-methoxy-2-(4-(5-methyl-3-(1H-pyrrolo[3,2-c]pyridin-3-yl)-1H-pyrazol-1-yl)-6-morpholinopyrimidin-2-yl)ethan-1-ol]	100 to 5000 nM
CCc1cc(-c2ccccc2)nn1-c1cc(N2CCOCC2)nc([C@@H](CO)OC)n1 [Compound 294, (S)-2-(4-(5-ethyl-3-phenyl-1H-pyrazol-1-yl)-6-morpholinopyrimidin-2-yl)-2-methoxyethan-1-ol]	10 to 100 nM
Cn1cc(CCOc2nc(N3CCOCC3)cc(-n3ccc(C4=CC(C)(C)CC=C4)n3)n2)cn1 [Compound 296, 4-(6-(3-(3,3-dimethylcyclohexa-1,5-dien-1-yl)-1H-pyrazol-1-yl)-2-(2-(1-methyl-1H-pyrazol-4-yl)ethoxy)pyrimidin-4-yl)morpholine]	100 to 5000 nM
CO[C@H](CO)c1nc(N2CCOCC2)cc(-n2nc(-c3cnc4ccccn34)cc2C)n1 [Compound 280, (S)-2-(4-(3-(imidazo[1,2-a]pyridin-3-yl)-5-methyl-1H-pyrazol-1-yl)-6-morpholinopyrimidin-2-yl)-2-methoxyethan-1-ol]	100 to 5000 nM
CO[C@H](CO)c1nc(N2CCOCC2)cc(-n2nc(-c3c[nH]c4cccnc34)cc2C)n1 [Compound 290, (S)-2-methoxy-2-(4-(5-methyl-3-(1H-pyrrolo[3,2-b]pyridin-3-yl)-1H-pyrazol-1-yl)-6-morpholinopyrimidin-2-yl)ethan-1-ol]	100 to 5000 nM
CO[C@H](CO)c1nc(N2CCOCC2)cc(-n2ccc(-c3cccc4c3COC4)n2)n1 [Compound 270, (S)-2-(4-(3-(1,3-dihydroisobenzofuran-4-yl)-1H-pyrazol-1-yl)-6-morpholinopyrimidin-2-yl)-2-methoxyethan-1-ol]	100 to 5000 nM
CO[C@@H](CO)c1nc(N2CCOCC2)cc(-n2ccc(-c3cnc4ccccn34)n2)n1 [Compound 283, (R)-2-(4-(3-(imidazo[1,2-a]pyridin-3-yl)-1H-pyrazol-1-yl)-6-morpholinopyrimidin-2-yl)-2-methoxyethan-1-ol]	100 to 5000 nM
Cc1cc(-c2ccccc2)nn1-c1nc2c(c(N3CCOCC3)n1)CN(CCc1ccn(C)n1)C2 [Compound 240, 4-(6-(2-(1-methyl-1H-pyrazol-3-yl)ethyl)-2-(5-methyl-3-phenyl-1H-pyrazol-1-yl)-6,7-dihydro-5H-pyrrolo[3,4-d]pyrimidin-4-yl)morpholine]	100 to 5000 nM
CO[C@@H](CO)c1nc(N2CCOCC2)cc(-n2ccc(-c3cccc(C)c3C)n2)n1 [Compound 265, (R)-2-(4-(3-(2,3-dimethylphenyl)-1H-pyrazol-1-yl)-6-morpholinopyrimidin-2-yl)-2-methoxyethan-1-ol]	100 to 5000 nM
CO[C@H](C)c1cccc(-c2ccn(-c3cc(N4CCOCC4)nc(OCCc4cnn(C)c4)n3)n2)c1 (single isomer, unassigned) [Compound 340]	10 to 100 nM

Second part, the molecule after the results:

IC50	SMILES
100 to 5000 nM	CO[C@@H](CO)c1nc(N2CCOCC2)cc(-n2nc(-c3c[nH]c4cnccc34)cc2C)n1 [Compound 287, (R)-2-methoxy-2-(4-(5-methyl-3-(1H-pyrrolo[2,3-c]pyridin-3-yl)-1H-pyrazol-1-yl)-6-morpholinopyrimidin-2-yl)ethan-1-ol]
> 5000 nM	Cc1cccc(CC(=O)N(C)c2nc(OCCc3cnn(C)c3)cc(N3CCOCC3)n2)c1 [Compound 250, N-methyl-N-(4-(2-(1-methyl-1H-pyrazol-4-yl)ethoxy)-6-morpholinopyrimidin-2-yl)-2-(m-tolyl)acetamide]
10 to 100 nM	CO[C@@H](CO)c1nc(N2CCOCC2)cc(-n2ccc(-c3cccc4c3OCO4)n2)n1 [Compound 267, (R)-2-(4-(3-(benzo[d][1,3]dioxol-4-yl)-1H-pyrazol-1-yl)-6-morpholinopyrimidin-2-yl)-2-methoxyethan-1-ol]
10 to 100 nM	Cc1cccc(-c2ccn(-c3nc4c(c(N5CCOCC5)n3)CN(CCc3ccn(C)n3)C4)n2)c1 [Compound 239, 4-(6-(2-(1-methyl-1H-pyrazol-3-yl)ethyl)-2-(3-(m-tolyl)-1H-pyrazol-1-yl)-6,7-dihydro-5H-pyrrolo[3,4-d]pyrimidin-4-yl)morpholine hydrochloride]
100 to 5000 nM	CO[C@H](CO)c1nc(N2CCOCC2)cc(-n2nc(-c3c[nH]c4ccncc34)cc2C)n1 [Compound 288, (S)-2-methoxy-2-(4-(5-methyl-3-(1H-pyrrolo[3,2-c]pyridin-3-yl)-1H-pyrazol-1-yl)-6-morpholinopyrimidin-2-yl)ethan-1-ol]
3 to 10 nM	Cc1cccc(-c2ccn(-c3nc(OCCc4cnn(C)c4)cc(N4CCOCC4)n3)n2)c1 [Compound 251, 4-(6-(2-(1-methyl-1H-pyrazol-4-yl)ethoxy)-2-(3-(m-tolyl)-1H-pyrazol-1-yl)pyrimidin-4-yl)morpholine]
10 to 100 nM	Cc1cccc(-c2ccn(-c3cc(N4CC[C@H]5OCC[C@H]54)nc(C(O)CO)n3)n2)c1 (stereo partly drawn) [Compound 151, 1-(4-((3aR,6aR)-hexahydro-4H-furo[3,2-b]pyrrol-4-yl)-6-(3-(m-tolyl)-1H-pyrazol-1-yl)pyrimidin-2-yl)ethane-1,2-diol]
100 to 5000 nM	CO[C@H](CO)c1nc(N2CCOCC2)cc(-n2ccc(-c3cccc4c3OCO4)n2)n1 [Compound 266, (S)-2-(4-(3-(benzo[d][1,3]dioxol-4-yl)-1H-pyrazol-1-yl)-6-morpholinopyrimidin-2-yl)-2-methoxyethan-1-ol]
100 to 5000 nM	Cc1c2cc(CN(C)C)ccc2nn1-c1cc(N2CCOCC2)nc(OCCc2cnn(C)c2)n1 [Compound 254, N,N-dimethyl-1-(3-methyl-2-(2-(2-(1-methyl-1H-pyrazol-4-yl)ethoxy)-6-morpholinopyrimidin-4-yl)-2H-indazol-5-yl)methanamine]
3 to 10 nM	Cc1cccc(-c2ccn(-c3cc(N4CCOCC4)nc(N(C)CCc4ccccn4)n3)n2)c1 [Compound 91, N-methyl-4-morpholino-N-(2-(pyridin-2-yl)ethyl)-6-(3-(m-tolyl)-1H-pyrazol-1-yl)pyrimidin-2-amine]
10 to 100 nM	CO[C@H](CO)c1nc(N2CCOCC2)cc(-n2nc(-c3c[nH]c4ncccc34)cc2C)n1 [Compound 284, (S)-2-methoxy-2-(4-(5-methyl-3-(1H-pyrrolo[2,3-b]pyridin-3-yl)-1H-pyrazol-1-yl)-6-morpholinopyrimidin-2-yl)ethan-1-ol]
100 to 5000 nM	CO[C@H](CO)c1nc(N2CCOCC2)cc(-n2ccc(-c3cnc4ccccn34)n2)n1 [Compound 282, (S)-2-(4-(3-(imidazo[1,2-a]pyridin-3-yl)-1H-pyrazol-1-yl)-6-morpholinopyrimidin-2-yl)-2-methoxyethan-1-ol]
100 to 5000 nM	Cc1cc(-c2ccccc2)nn1-c1cc(N2CCOCC2)c2[nH]ccc2n1 [Compound 243, 4-(5-(5-methyl-3-phenyl-1H-pyrazol-1-yl)-1H-pyrrolo[3,2-b]pyridin-7-yl)morpholine]
100 to 5000 nM	Cn1cc(CCOc2nc(Oc3cc(-c4ccccc4)n(C)n3)cc(N3CCOCC3)n2)cn1 [Compound 213, 4-(2-(2-(1-methyl-1H-pyrazol-4-yl)ethoxy)-6-((1-methyl-5-phenyl-1H-pyrazol-3-yl)oxy)pyrimidin-4-yl)morpholine]
100 to 5000 nM	Cc1cccc(-c2ccn(-c3cc(N4CCOCC4)c4c(ccn4C)n3)n2)c1 [Compound 333, 4-(1-methyl-5-(3-(m-tolyl)-1H-pyrazol-1-yl)-1H-pyrrolo[3,2-b]pyridin-7-yl)morpholine]
> 5000 nM	Cn1cc(CCOc2nc(N3CCOCC3)cc(-n3ccc(C4CCCCC4)n3)n2)cn1 [Compound 196, 4-(6-(3-cyclohexyl-1H-pyrazol-1-yl)-2-(2-(1-methyl-1H-pyrazol-4-yl)ethoxy)pyrimidin-4-yl)morpholine]
100 to 5000 nM	CN(C)C(=O)c1cc(-c2ccccc2)nn1-c1cc(N2CCOCC2)nc(OCCc2cnn(C)c2)n1 [Compound 222, N,N-dimethyl-1-(2-(2-(1-methyl-1H-pyrazol-4-yl)ethoxy)-6-morpholinopyrimidin-4-yl)-3-phenyl-1H-pyrazole-5-carboxamide]
100 to 5000 nM	Cc1cccc(N2CC(C)N(c3cc(N4CCOCC4)nc(OCCc4cnn(C)c4)n3)C2=O)c1 (stereo not shown) [Compound 246, 4-methyl-3-(2-(2-(1-methyl-1H-pyrazol-4-yl)ethoxy)-6-morpholinopyrimidin-4-yl)-1-(m-tolyl)imidazolidin-2-one]
> 5000 nM	CN(c1nc(OCCc2cnn(C)c2)cc(N2CCOCC2)n1)c1ncc2ccccc2n1 [Compound 252, N-methyl-N-(4-(2-(1-methyl-1H-pyrazol-4-yl)ethoxy)-6-morpholinopyrimidin-2-yl)quinazolin-2-amine]
